# Reference: the NIST ThermoML archive (doi:10.1016/j.jct.2016.09.028)
# ± gives the expanded uncertainty stated by the source.
# Legend:
# [1] = xn = mol fraction of the nth substance listed; conditions: 100 kPa, Liquid, x1 = 1; for speed of sound: Frequency=3 MHz, Sing-around technique in a fixed-path interferometer; for mass density: Vibrating tube method
# [2] = 100 kPa, Liquid; for speed of sound: Frequency=3 MHz, Sing-around technique in a fixed-path interferometer; for mass density: Vibrating tube method
Structure (SMILES),speed of sound ([1]; 293.15 K) [m/s],mass density ([1]; 293.15 K) [kg/m3],speed of sound ([1]; 303.15 K) [m/s],mass density ([1]; 303.15 K) [kg/m3],speed of sound ([1]; 313.15 K) [m/s],mass density ([1]; 313.15 K) [kg/m3],speed of sound ([1]; 323.15 K) [m/s],mass density ([1]; 323.15 K) [kg/m3],speed of sound ([2]; 293.15 K) [m/s],mass density ([2]; 293.15 K) [kg/m3],speed of sound ([2]; 303.15 K) [m/s],mass density ([2]; 303.15 K) [kg/m3],speed of sound ([2]; 313.15 K) [m/s],mass density ([2]; 313.15 K) [kg/m3],speed of sound ([2]; 323.15 K) [m/s],mass density ([2]; 323.15 K) [kg/m3]
CCn1cc[n+](C)c1.F[B-](F)(F)F [1-ethyl-3-methylimidazolium tetrafluoroborate] + Nc1ccccc1,1632.6 ± 2.4,1283.64 ± 1.7,1609.5 ± 2.4,1276.12 ± 1.7,1586.2 ± 2.4,1268.57 ± 1.6,1563.4 ± 2.3,1261.04 ± 1.6,,,,,,,,
CCn1cc[n+](C)c1.F[B-](F)(F)F [1-ethyl-3-methylimidazolium tetrafluoroborate],,,,,,,,,1632.6 ± 2.4,1283.64 ± 1.7,1609.5 ± 2.4,1276.12 ± 1.7,1586.2 ± 2.4,1268.57 ± 1.6,1563.4 ± 2.3,1261.04 ± 1.6
